1 compound from patent US11571411B2, “Use of a bisamide derivative of malonic acid for treating allergic and other diseases in humans and animals” (PHARMENTERPRISES ALLERGY LLC, priority 2018, dated 2023) can be followed below.

The subject of assay [1] is ovalbumin-induced allergic rhinitis model. The experiment in a line: Ovalbumin-induced allergic rhinitis model in guinea pigs, oral administration. As to conditions: intragastrically; for Number of nose scratchings / Number of sneezes: within 2 hours after ovalbumin. It is filed as in vivo, guinea pig. How it is done:
Int Immunopharmacol. 2013. V.17(1). P.18-25]. Guinea pigs (250-300 g) were immunized with 4× (on days 0, 7, 14 and 21) intraperitoneal administration of a mixture of ovalbumin (100 μg/pig) and aluminum hydroxide (5 mg/pig), diluted and suspended in saline. On day 28 of the study, an ovalbumin solution (60 mg/ml) was injected intranasally to the animals, 20 μl into each nostril. On day 35, after shaving the skin on the back, the animals were intradermally injected with an ovalbumin solution (200 μg/ml, 25 μl). […] On day 42 of the study, an ovalbumin solution (60 mg/ml, 20 μl/nostril) was administered intranasally. A group of sham-immunized animals was formed in order to control the formation of allergic inflammation: the pigs received an aluminum hydroxide solution (5 mg/pig) on days 0, 7, 14 and 21, a saline solution on days 28 and 35, and an ovalbumin solution (60 mg/ml, 20 μl/nostril) on day 42. Table 1 presents data on clinical manifestations of pathology and the number of eosinophils in the lavage fluid in guinea pigs on the allergic rhinitis experimental model after oral administration (M±m, n=10)
Compound I was administered to animals intragastrically 48, and 1 hour before intranasal administration of ovalbumin. Clinical manifestations of rhinitis were assessed within 2 hours after the last administration of ovalbumin: the numbers of sneezes and nose scratchings were counted. In addition, eosinophils were counted in the nasal lavage fluid.

In assay [2] the test system is histamine-induced nasal congestion model. Nature of the assay: Histamine-induced nasal congestion model in dogs, nasal administration of 1% solution. It counts as in vivo, Beagle dogs. Conditions: 1% solution intranasally. How it is done: A histamine-induced nasal congestion model in dogs was performed according to the standard procedure [Tiniakov R. L., Tiniakova O. P., McLeod R. L., Hey J. A., Yeates D. B. Canine model of nasal congestion and allergic rhinitis//J Appl Physiol. 2003. V.94(5). P.1821-1828]. Beagle dogs were injected to the nasal cavity with a 5% histamine solution in a volume of 250 μl/nostril. The volume of the nasal cavity of the right and left nostrils was measured using a rhinometer before and 5, 10, 15, 20, 30, 40, 50 and 60 minutes after administration of histamine. Five experiments were carried out in which Compound I was administered intranasally once in the form of a 1% solution in a volume of 50 μl at different time periods: 1) 5 minutes after the administration of histamine; 2) right before administration of histamine; 3) 3 hours before administration of histamine; 4) […] administration of histamine; and 5) 8 hours before administration of histamine.

Regarding `O=C(CC(=O)NCCc1cnc[nH]1)NCCc1cnc[nH]1` [Compound I, N,N′-bis(2-(1H-imidazol-5-yl)ethyl)malonamide], the “Number of eosinophils per 1 μL of lavage fluid” value is 1300.5 ± 93.8*#& per 1 μL in assay [1] (0.014 mg/kg); 1219.6 ± 159.4*#& per 1 μL in assay [1] (0.042 mg/kg); 1141.5 ± 128.5*#& per 1 μL in assay [1] (0.14 mg/kg); 1069.0 ± 139.4*#& per 1 μL in assay [1] (0.42 mg/kg); 984.1 ± 111.0*#& per 1 μL in assay [1] (1.4 mg/kg). Also, the “Number of nose scratchings” value is 16.1 ± 2*#& in assay [1] (0.014 mg/kg); 16.2 ± 2.7*& in assay [1] (0.042 mg/kg); 13.3 ± 1.3*& in assay [1] (0.14 mg/kg); 16.2 ± 2.0*#& in assay [1] (0.42 mg/kg); 14.4 ± 3.3*& in assay [1] (1.4 mg/kg). In addition, the Number of sneezes in assay [1] (0.014 mg/kg) is listed as 11.6 ± 1.4*#&; in assay [1] (0.042 mg/kg) it was 10.5 ± 1.2*#&; in assay [1] (0.14 mg/kg), 8.3 ± 0.9*#&; in assay [1] (0.42 mg/kg) it was 5.2 ± 0.6*&; in assay [1] (1.4 mg/kg), 6.9 ± 0.8*#&. In assay [2], the “duration of the therapeutic effect” value is reported as “at least 8 hours”. In addition, the “onset time of the therapeutic effect” value in assay [2] is given as “no more than 5 minutes”.
